# In ChEMBL document CHEMBL5614413, “Design, synthesis and biological evaluation of amphiphilic benzopyran derivatives as potent antibacterial agents against multidrug-resistant bacteria” (Eur J Med Chem, 2024):
# How the values were obtained:
# Staphylococcus aureus [1] = assay: Antibacterial activity against erythromycin-susceptible Staphylococcus aureus ATCC 25923; assay type: functional
# Staphylococcus aureus [2] = assay: Antibacterial activity against penicillin-resistant Staphylococcus aureus ATCC 31007; assay type: functional
# Staphylococcus aureus [3] = assay: Antibacterial activity against methicillin-resistant Staphylococcus aureus ATCC 43300; assay type: functional
# Bacillus subtilis = assay: Antibacterial activity against penicillin-susceptible Bacillus subtilis ATCC 9372; assay type: functional
# Enterococcus faecalis = assay: Antibacterial activity against vancomycin-susceptible Enterococcus faecalis ATCC 29212; assay type: functional
# [4] = tested on: Staphylococcus epidermidis; assay: Antibacterial activity erythromycin-susceptible Staphylococcus epidermidis ATCC 12228; assay type: functional
# Klebsiella pneumoniae = assay: Antibacterial activity against Klebsiella pneumoniae ATCC 10031; assay type: functional
# Acinetobacter baumannii = assay: Antibacterial activity against Acinetobacter baumannii ATCC 19606; assay type: functional
# Escherichia coli = assay: Antibacterial activity against penicillin-susceptible Escherichia coli ATCC 25922; assay type: functional
# Pseudomonas aeruginosa = assay: Antibacterial activity against penicillin-susceptible Pseudomonas aeruginosa ATCC 27853; assay type: functional
# [5] = Hemolytic activity in sheep RBC; assay type: toxicity, cell-based, Ovis aries, Erythrocyte; settings: sheep red blood cells (erythrocytes)
# [6] = Selectivity index, ratio of HC50 for hemolytic activity in sheep RBC to MIC for antibacterial activity against methicillin-resistant Staphylococcus aureus ATCC 43300; assay type: toxicity; settings: sheep red blood cells (erythrocytes), read-out: Selectivity Index
SMILES,MIC (Staphylococcus aureus [1]),MIC (Staphylococcus aureus [2]),MIC (Staphylococcus aureus [3]),MIC (Bacillus subtilis),MIC (Enterococcus faecalis),MIC [4],MIC (Klebsiella pneumoniae),MIC (Acinetobacter baumannii),MIC (Escherichia coli),MIC (Pseudomonas aeruginosa),HC50 [5],selectivity ratio [6]
CC(=O)c1c(OCCCN2CCSCC2)c2c(c3c1OC(C)(CCC=C(C)C)C=C3)OC(C)(CCC=C(C)C)C=C2 (centres undefined),> 128 µg/mL,> 128 µg/mL,> 128 µg/mL,> 128 µg/mL,> 128 µg/mL,> 128 µg/mL,> 128 µg/mL,> 128 µg/mL,> 128 µg/mL,> 128 µg/mL,844 µg/mL,< 6.6
CCCCN(CCCC)CCCNCCCOc1c2c(c3c(c1C(C)=O)OC(C)(CCC=C(C)C)C=C3)OC(C)(CCC=C(C)C)C=C2 (centres undefined),1 µg/mL,2 µg/mL,4 µg/mL,4 µg/mL,1 µg/mL,1 µg/mL,8 µg/mL,4 µg/mL,8 µg/mL,128 µg/mL,36.7 µg/mL,9.2
CC(=O)c1ccc2c(c1OCCCN(C)C)C=CC(C)(CCC=C(C)C)O2 (centres undefined),16 µg/mL,16 µg/mL,16 µg/mL,16 µg/mL,16 µg/mL,8 µg/mL,8 µg/mL,16 µg/mL,32 µg/mL,64 µg/mL,194 µg/mL,11.9
CC(=O)c1c(OCCCN2CCOCC2)c2c(c3c1OC(C)(CCC=C(C)C)C=C3)OC(C)(CCC=C(C)C)C=C2 (centres undefined),> 128 µg/mL,> 128 µg/mL,> 128 µg/mL,> 128 µg/mL,> 128 µg/mL,> 128 µg/mL,> 128 µg/mL,> 128 µg/mL,> 128 µg/mL,> 128 µg/mL,> 128 µg/mL,< 10
CC(=O)c1ccc2c(c1OCC(=O)NCCCN1CCN(C)CC1)C=CC(C)(CCC=C(C)C)O2 (centres undefined),128 µg/mL,128 µg/mL,128 µg/mL,> 128 µg/mL,128 µg/mL,128 µg/mL,128 µg/mL,128 µg/mL,> 128 µg/mL,> 128 µg/mL,220 µg/mL,1.7
CCCCN(CCCC)CCCNCCCOc1ccc(/C=C/C(=O)c2ccc3c(c2OC)C=CC(C)(CCC=C(C)C)O3)cc1 (centres undefined),8 µg/mL,4 µg/mL,4 µg/mL,4 µg/mL,2 µg/mL,1 µg/mL,16 µg/mL,8 µg/mL,4 µg/mL,128 µg/mL,66.9 µg/mL,16.7
CC(=O)c1c(OCCCNCCN(C)C)c2c(c3c1OC(C)(CCC=C(C)C)C=C3)OC(C)(CCC=C(C)C)C=C2 (centres undefined),1 µg/mL,2 µg/mL,2 µg/mL,2 µg/mL,1 µg/mL,0.5 µg/mL,4 µg/mL,2 µg/mL,2 µg/mL,32 µg/mL,45.2 µg/mL,22.6
COc1c(C(=O)/C=C/c2ccc(OCCCN(C)CCCN(C)C)cc2)ccc2c1C=CC(C)(CCC=C(C)C)O2 (centres undefined),4 µg/mL,4 µg/mL,4 µg/mL,4 µg/mL,2 µg/mL,1 µg/mL,4 µg/mL,8 µg/mL,2 µg/mL,> 128 µg/mL,119 µg/mL,29.8
CC(=O)c1c(OCCCN(C)C)c2c(c3c1OC(C)(CCC=C(C)C)C=C3)OC(C)(CCC=C(C)C)C=C2 (centres undefined),2 µg/mL,2 µg/mL,4 µg/mL,2 µg/mL,1 µg/mL,1 µg/mL,> 128 µg/mL,> 128 µg/mL,> 128 µg/mL,> 128 µg/mL,64 µg/mL,16
CC(=O)c1ccc2c(c1OCC(=O)NCCCN1CCCC1)C=CC(C)(CCC=C(C)C)O2 (centres undefined),32 µg/mL,32 µg/mL,32 µg/mL,64 µg/mL,64 µg/mL,64 µg/mL,64 µg/mL,128 µg/mL,> 128 µg/mL,> 128 µg/mL,167 µg/mL,5.2
CC(=O)c1ccc2c(c1OCCCN(C)CCCN(C)C)C=CC(C)(CCC=C(C)C)O2 (centres undefined),16 µg/mL,32 µg/mL,16 µg/mL,16 µg/mL,16 µg/mL,16 µg/mL,8 µg/mL,8 µg/mL,8 µg/mL,32 µg/mL,160 µg/mL,10
CC(=O)c1c(OCCCNCCCN2CCCC2)c2c(c3c1OC(C)(CCC=C(C)C)C=C3)OC(C)(CCC=C(C)C)C=C2 (centres undefined),4 µg/mL,4 µg/mL,4 µg/mL,8 µg/mL,4 µg/mL,4 µg/mL,8 µg/mL,16 µg/mL,16 µg/mL,128 µg/mL,19.7 µg/mL,4.9
CCN(CC)CCCNCCCOc1c(C(C)=O)ccc2c1C=CC(C)(CCC=C(C)C)O2 (centres undefined),8 µg/mL,16 µg/mL,8 µg/mL,8 µg/mL,8 µg/mL,8 µg/mL,8 µg/mL,8 µg/mL,8 µg/mL,16 µg/mL,140 µg/mL,17.5
CC(=O)c1c(OCCCNCCCN2CCOCC2)c2c(c3c1OC(C)(CCC=C(C)C)C=C3)OC(C)(CCC=C(C)C)C=C2 (centres undefined),4 µg/mL,4 µg/mL,4 µg/mL,4 µg/mL,8 µg/mL,4 µg/mL,128 µg/mL,128 µg/mL,> 128 µg/mL,> 128 µg/mL,18.1 µg/mL,4.5
CC(=O)c1ccc2c(c1OCCCN1CCSCC1)C=CC(C)(CCC=C(C)C)O2 (centres undefined),> 128 µg/mL,> 128 µg/mL,> 128 µg/mL,> 128 µg/mL,> 128 µg/mL,> 128 µg/mL,> 128 µg/mL,128 µg/mL,> 128 µg/mL,> 128 µg/mL,> 1280 µg/mL,< 10
COc1c(C(=O)/C=C/c2ccc(OCCCNCCN(C)C)cc2)ccc2c1C=CC(C)(CCC=C(C)C)O2 (centres undefined),8 µg/mL,4 µg/mL,4 µg/mL,2 µg/mL,2 µg/mL,2 µg/mL,16 µg/mL,8 µg/mL,4 µg/mL,128 µg/mL,270 µg/mL,67.6
CC(=O)c1ccc2c(c1OCC(=O)NCCN(C)C)C=CC(C)(CCC=C(C)C)O2 (centres undefined),64 µg/mL,128 µg/mL,128 µg/mL,64 µg/mL,64 µg/mL,64 µg/mL,32 µg/mL,64 µg/mL,128 µg/mL,128 µg/mL,316 µg/mL,4.9
